# Reference: PMC5218480 (PLoS ONE, 2017)
# System: MV-4-11 cells
# Assay: Gene expression microarray analysis (Affymetrix PrimeView) and GSEA
# Format: cell-based, human
# Design: RFU PODN (11730768_x_at) / Fold change /veh PODN (11730768_x_at) / RFU LINC00158 (11744669_a_at) / Fold change /veh LINC00158 (11744669_a_at) / RFU DUSP10 (11751237_a_at) / Fold change /veh DUSP10 (11751237_a_at) / RFU ID3 (11757404_x_at) / Fold change /veh ID3 (11757404_x_at) / RFU PLEKHG5 (11737974_s_at) / Fold change /veh PLEKHG5 (11737974_s_at) / RFU LRRC4B (11730491_at) / Fold change /veh LRRC4B (11730491_at) / RFU GIMAP4 (11747438_a_at) / Fold change /veh GIMAP4 (11747438_a_at) / RFU KRT8 (11758183_x_at) / Fold change /veh KRT8 (11758183_x_at) / RFU CNN1 (11734310_a_at) / Fold change /veh CNN1 (11734310_a_at) / RFU VPS37D (11726825_at) / Fold change /veh VPS37D (11726825_at) / RFU C10orf10 (11716522_x_at) / Fold change /veh C10orf10 (11716522_x_at) / RFU KIR2DL2 /// KIR2DL4 /// KIR2DL5A /// KIR2DL5B /// KIR2DS1 /// KIR2DS2 /// KIR2DS3 /// KIR2DS4 /// KIR3DL3 /// KIR3DL3 /// KIR3DS1 (11738374_at) / Fold change /veh KIR2DL2 /// KIR2DL4 /// KIR2DL5A /// KIR2DL5B /// KIR2DS1 /// KIR2DS2 /// KIR2DS3 /// KIR2DS4 /// KIR3DL3 /// KIR3DL3 /// KIR3DS1 (11738374_at) / RFU C1QL1 (11718748_at) / Fold change /veh C1QL1 (11718748_at) / RFU TMPRSS4 (11747572_a_at) / Fold change /veh TMPRSS4 (11747572_a_at) / RFU HAMP (11756126_x_at) / Fold change /veh HAMP (11756126_x_at) / RFU RNFT2 (11725882_a_at) / Fold change /veh RNFT2 (11725882_a_at) / RFU NR4A2 (11747474_a_at) / Fold change /veh NR4A2 (11747474_a_at) / RFU ABCC12 (11746883_a_at) / Fold change /veh ABCC12 (11746883_a_at) / RFU TMEM136 (11760407_x_at) / Fold change /veh TMEM136 (11760407_x_at) / RFU CLDN22 /// WWC2 (11732394_at) / Fold change /veh CLDN22 /// WWC2 (11732394_at) / RFU HLA-DPB1 (11760878_x_at) / Fold change /veh HLA-DPB1 (11760878_x_at) / RFU SPINT1 (11716480_a_at) / Fold change /veh SPINT1 (11716480_a_at) / RFU GAP43 (11754022_s_at) / Fold change /veh GAP43 (11754022_s_at) / RFU A4GNT (11735810_at) / Fold change /veh A4GNT (11735810_at) / RFU PRB3 (11715151_x_at) / Fold change /veh PRB3 (11715151_x_at) / RFU TUBB4B (11761932_at) / Fold change /veh TUBB4B (11761932_at) / RFU CAPN14 (11732068_a_at) / Fold change /veh CAPN14 (11732068_a_at) / RFU TMCC2 (11721928_a_at) / Fold change /veh TMCC2 (11721928_a_at) / RFU IRGQ (11745062_a_at) / Fold change /veh IRGQ (11745062_a_at) / RFU FAM174B (11720279_a_at) / Fold change /veh FAM174B (11720279_a_at) / RFU TMPRSS4 (11748680_a_at) / Fold change /veh TMPRSS4 (11748680_a_at) / RFU FAM212B (11763350_a_at) / Fold change /veh FAM212B (11763350_a_at) / RFU PLEKHG5 (11743358_a_at) / Fold change /veh PLEKHG5 (11743358_a_at) / RFU ZSCAN30 (11745921_a_at) / Fold change /veh ZSCAN30 (11745921_a_at) / RFU CMKLR1 (11741424_a_at) / Fold change /veh CMKLR1 (11741424_a_at) / RFU LOC101060620 /// MAPK8IP1 (11723275_at) / Fold change /veh LOC101060620 /// MAPK8IP1 (11723275_at) / RFU SPTSSB (11747773_x_at) / Fold change /veh SPTSSB (11747773_x_at) / RFU PRSS12 (11739890_at) / Fold change /veh PRSS12 (11739890_at) / RFU BIN1 (11741810_x_at) / Fold change /veh BIN1 (11741810_x_at) / RFU WNT11 (11732464_a_at) / Fold change /veh WNT11 (11732464_a_at) / RFU C10orf10 (11716521_a_at) / Fold change /veh C10orf10 (11716521_a_at) / RFU C5orf56 (11738089_at) / Fold change /veh C5orf56 (11738089_at) / RFU CYB561 (11721691_x_at) / Fold change /veh CYB561 (11721691_x_at) / RFU ANKRD19P (11752326_a_at) / Fold change /veh ANKRD19P (11752326_a_at) / RFU OR2T12 /// OR2T33 /// OR2T8 (11738714_s_at) / Fold change /veh OR2T12 /// OR2T33 /// OR2T8 (11738714_s_at) / RFU VCAN (11748164_a_at) / Fold change /veh VCAN (11748164_a_at) / RFU JSRP1 (11732532_at) / Fold change /veh JSRP1 (11732532_at) / RFU KRTAP10-11 (11738290_x_at) / Fold change /veh KRTAP10-11 (11738290_x_at) / RFU MYO3A (11730013_a_at) / Fold change /veh MYO3A (11730013_a_at) / RFU EBF3 (11725865_a_at) / Fold change /veh EBF3 (11725865_a_at) / RFU CAMK2N1 (11719241_x_at) / Fold change /veh CAMK2N1 (11719241_x_at) / RFU C5orf56 (11738088_a_at) / Fold change /veh C5orf56 (11738088_a_at) / RFU OLFML3 (11715873_a_at) / Fold change /veh OLFML3 (11715873_a_at) / RFU LOC100653217 /// NTM (11731650_a_at) / Fold change /veh LOC100653217 /// NTM (11731650_a_at) / RFU MAPK11 (11762145_a_at) / Fold change /veh MAPK11 (11762145_a_at) / RFU FIZ1 (11724087_x_at) / Fold change /veh FIZ1 (11724087_x_at) / RFU OASL (11726364_x_at) / Fold change /veh OASL (11726364_x_at) / RFU SOX15 (11748057_x_at) / Fold change /veh SOX15 (11748057_x_at) / RFU CD79A (11719716_a_at) / Fold change /veh CD79A (11719716_a_at) / RFU HIST1H1D (11736915_at) / Fold change /veh HIST1H1D (11736915_at) / RFU CASKIN2 (11723855_a_at) / Fold change /veh CASKIN2 (11723855_a_at) / RFU LOC730098 (11760151_x_at) / Fold change /veh LOC730098 (11760151_x_at) / RFU OR4N2 (11742367_at) / Fold change /veh OR4N2 (11742367_at) / RFU PRRT2 (11749266_a_at) / Fold change /veh PRRT2 (11749266_a_at) / RFU SNX32 (11753110_a_at) / Fold change /veh SNX32 (11753110_a_at) / RFU CDHR5 (11726645_a_at) / Fold change /veh CDHR5 (11726645_a_at) / RFU RCAN1 (11760418_a_at) / Fold change /veh RCAN1 (11760418_a_at) / RFU FAM167A (11723789_a_at) / Fold change /veh FAM167A (11723789_a_at) / RFU FAM26E (11764081_at) / Fold change /veh FAM26E (11764081_at) / RFU ISYNA1 (11749810_s_at) / Fold change /veh ISYNA1 (11749810_s_at) / RFU ACY1 (11761880_at) / Fold change /veh ACY1 (11761880_at) / RFU 11764098_at / Fold change /veh 11764098_at / RFU SAMD14 (11745864_x_at) / Fold change /veh SAMD14 (11745864_x_at) / RFU NPB (11741838_a_at) / Fold change /veh NPB (11741838_a_at) / RFU TMPRSS6 (11731388_a_at) / Fold change /veh TMPRSS6 (11731388_a_at) / RFU KRTAP10-2 (11738614_at) / Fold change /veh KRTAP10-2 (11738614_at) / RFU ARHGAP8 /// PRR5-ARHGAP8 (11727945_x_at) / Fold change /veh ARHGAP8 /// PRR5-ARHGAP8 (11727945_x_at) / RFU KRTAP5-7 /// NADSYN1 (11734609_at) / Fold change /veh KRTAP5-7 /// NADSYN1 (11734609_at) / RFU RASL12 (11751679_a_at) / Fold change /veh RASL12 (11751679_a_at) / RFU CDKN2B (11736163_a_at) / Fold change /veh CDKN2B (11736163_a_at) / RFU PRF1 (11729649_at) / Fold change /veh PRF1 (11729649_at) / RFU, ZNF638 /// ZNF638-IT1 / Fold change vs veh, ZNF638 /// ZNF638-IT1 / RFU, PANK3 / Fold change vs veh, PANK3 / RFU, SH3YL1 / Fold change vs veh, SH3YL1 / RFU, ZEB2 / Fold change vs veh, ZEB2 / RFU, NRIP1 / Fold change vs veh, NRIP1 / RFU, PTTG1IP / Fold change vs veh, PTTG1IP / RFU, CAPN2 / Fold change vs veh, CAPN2 / RFU, MED14 / Fold change vs veh, MED14 / RFU, SNORA58 / Fold change vs veh, SNORA58 / RFU, C1orf63 / Fold change vs veh, C1orf63 / RFU, LRRFIP1 / Fold change vs veh, LRRFIP1 / RFU, NDUFAF7 / Fold change vs veh, NDUFAF7 / RFU, SLC12A2 / Fold change vs veh, SLC12A2 / RFU, IBTK / Fold change vs veh, IBTK / RFU, ESF1 / Fold change vs veh, ESF1 / Fold change vs veh, TMEM50B / RFU, TAOK1 / Fold change vs veh, TAOK1 / RFU, ACBD3 / Fold change vs veh, ACBD3 / RFU, TMA16 / Fold change vs veh, TMA16 / RFU, RWDD3 / Fold change vs veh, RWDD3 / RFU, BCAT1 / Fold change vs veh, BCAT1 / RFU, EDEM3 / Fold change vs veh, EDEM3 / RFU, TMEM33 / Fold change vs veh, TMEM33 / RFU, WDR75 / Fold change vs veh, WDR75 / RFU, AHCTF1 / Fold change vs veh, AHCTF1 / RFU, TFRC / Fold change vs veh, TFRC / RFU, ZDHHC17 / Fold change vs veh, ZDHHC17 / RFU, NOM1 / Fold change vs veh, NOM1 / RFU, ARL8B / Fold change vs veh, ARL8B / RFU, ZBTB11 / Fold change vs veh, ZBTB11 / RFU, TAMM41 / Fold change vs veh, TAMM41 / RFU, KIAA1704 /// LOC100996395 / Fold change vs veh, KIAA1704 /// LOC100996395 / RFU, ING1 / Fold change vs veh, ING1 / RFU, TRMT61B / Fold change vs veh, TRMT61B / RFU, FUBP3 / Fold change vs veh, FUBP3 / RFU, TP53 / Fold change vs veh, TP53 / RFU, TNKS2 / Fold change vs veh, TNKS2 / RFU, ZFP14 / Fold change vs veh, ZFP14 / RFU, ACTR2 / Fold change vs veh, ACTR2 / RFU, PPP3R1 / Fold change vs veh, PPP3R1 / RFU, PIK3R1 / Fold change vs veh, PIK3R1 / RFU, HNRNPA1 / Fold change vs veh, HNRNPA1 / RFU, RNF170 / Fold change vs veh, RNF170 / RFU, ZNF28 / Fold change vs veh, ZNF28 / RFU, RNGTT / Fold change vs veh, RNGTT / RFU, OGT / Fold change vs veh, OGT / RFU, BRD1 / Fold change vs veh, BRD1 / RFU, MARS / Fold change vs veh, MARS / RFU, ZNF655 / Fold change vs veh, ZNF655 / RFU, FAHD1 / Fold change vs veh, FAHD1 / RFU, BDP1 / Fold change vs veh, BDP1 / RFU, LRRCC1 / Fold change vs veh, LRRCC1 / RFU, ARID1A / Fold change vs veh, ARID1A / RFU, ZNF146 / Fold change vs veh, ZNF146 / RFU, ZNF330 / Fold change vs veh, ZNF330 / RFU, GPN3 / Fold change vs veh, GPN3 / RFU, C9orf123 / Fold change vs veh, C9orf123 / RFU, N4BP2L2 / Fold change vs veh, N4BP2L2 / RFU, ARFIP1 / Fold change vs veh, ARFIP1 / RFU, FAM179B / Fold change vs veh, FAM179B / RFU, BCL10 / Fold change vs veh, BCL10 / RFU, UHRF1BP1L / Fold change vs veh, UHRF1BP1L / RFU, BET1 / Fold change vs veh, BET1 / RFU, CNOT2 / Fold change vs veh, CNOT2 / RFU, ZNF268 / Fold change vs veh, ZNF268 / Fold change vs veh, ZNF507 / RFU, DGCR2 / Fold change vs veh, DGCR2 / RFU, WDSUB1 / Fold change vs veh, WDSUB1 / Fold change vs veh, HSP90B1 /// MIR3652 / RFU, ADSS / Fold change vs veh, ADSS / RFU, GK / Fold change vs veh, GK / RFU, ZNF148 / Fold change vs veh, ZNF148 / RFU, TAF9 / Fold change vs veh, TAF9 / RFU, SLC1A5 / Fold change vs veh, SLC1A5 / RFU, SLMO2 / Fold change vs veh, SLMO2 / RFU, ABCC4 / Fold change vs veh, ABCC4 / RFU, LOC101060439 /// RAP1B / Fold change vs veh, LOC101060439 /// RAP1B / RFU, RFX7 / Fold change vs veh, RFX7 / RFU, GTPBP10 / Fold change vs veh, GTPBP10 / RFU, CNEP1R1 / Fold change vs veh, CNEP1R1 / RFU, BIVM-ERCC5 /// ERCC5 / Fold change vs veh, BIVM-ERCC5 /// ERCC5 / RFU, ILF3 / Fold change vs veh, ILF3 / RFU 11762660_at / Fold change /veh 11762660_at / RFU VCAN (11757783_s_at) / Fold change /veh VCAN (11757783_s_at) / RFU DDX43 (11728927_at) / Fold change /veh DDX43 (11728927_at) / RFU KRT8 (11758188_x_at) / Fold change /veh KRT8 (11758188_x_at) / RFU NKD1 (11759106_at) / Fold change /veh NKD1 (11759106_at) / RFU SRD5A1 (11742802_a_at) / Fold change /veh SRD5A1 (11742802_a_at) / RFU TPSAB1 /// TPSB2 (11721975_s_at) / Fold change /veh TPSAB1 /// TPSB2 (11721975_s_at) / RFU GSTM3 (11746129_a_at) / Fold change /veh GSTM3 (11746129_a_at) / RFU IL23R (11737362_x_at) / Fold change /veh IL23R (11737362_x_at) / RFU TMEM51 (11727254_a_at) / Fold change /veh TMEM51 (11727254_a_at) / RFU PIWIL2 (11732686_x_at) / Fold change /veh PIWIL2 (11732686_x_at) / RFU ORM1 (11744905_x_at) / Fold change /veh ORM1 (11744905_x_at) / RFU CCDC152 (11743942_at) / Fold change /veh CCDC152 (11743942_at) / RFU ECM1 (11717891_a_at) / Fold change /veh ECM1 (11717891_a_at) / RFU IL23R (11748794_a_at) / Fold change /veh IL23R (11748794_a_at) / RFU TNFAIP8L3 (11732012_x_at) / Fold change /veh TNFAIP8L3 (11732012_x_at) / RFU MBOAT4 (11741988_at) / Fold change /veh MBOAT4 (11741988_at) / RFU 11764193_at / Fold change /veh 11764193_at / RFU TMEM53 (11763286_at) / Fold change /veh TMEM53 (11763286_at) / RFU MAGEB2 (11727129_at) / Fold change /veh MAGEB2 (11727129_at) / RFU TMEM200A (11744735_a_at) / Fold change /veh TMEM200A (11744735_a_at) / RFU CCDC152 (11751479_a_at) / Fold change /veh CCDC152 (11751479_a_at) / RFU FAM211A (11726209_a_at) / Fold change /veh FAM211A (11726209_a_at) / RFU RGS16 (11746705_a_at) / Fold change /veh RGS16 (11746705_a_at) / RFU VCAN (11755009_s_at) / Fold change /veh VCAN (11755009_s_at) / RFU RHOB (11743442_s_at) / Fold change /veh RHOB (11743442_s_at) / RFU RGS16 (11720943_a_at) / Fold change /veh RGS16 (11720943_a_at) / RFU RGS16 (11720944_at) / Fold change /veh RGS16 (11720944_at) / RFU, VPS4B / Fold change vs veh, VPS4B / RFU, CREB1 / Fold change vs veh, CREB1 / RFU, DNAJC13 / Fold change vs veh, DNAJC13 / RFU, GNAQ / Fold change vs veh, GNAQ / RFU, CDK5R1 / Fold change vs veh, CDK5R1 / RFU, ZRANB3 / Fold change vs veh, ZRANB3 / RFU, CUL4A / Fold change vs veh, CUL4A / RFU, CCNY / Fold change vs veh, CCNY / RFU, UFL1 / Fold change vs veh, UFL1 / RFU, COG3 / Fold change vs veh, COG3 / RFU, DIAPH2 / Fold change vs veh, DIAPH2 / RFU, SKA2 / Fold change vs veh, SKA2 / RFU, AFF3 / Fold change vs veh, AFF3 / RFU, LMF1 / Fold change vs veh, LMF1 / RFU, IPO11 / Fold change vs veh, IPO11 / RFU, DFFB / Fold change vs veh, DFFB / RFU, FOXP1 / Fold change vs veh, FOXP1 / RFU, CARD8 / Fold change vs veh, CARD8 / RFU, STRN3 / Fold change vs veh, STRN3 / RFU, ADK / Fold change vs veh, ADK / RFU, RASSF2 / Fold change vs veh, RASSF2 / RFU, WIPF1 / Fold change vs veh, WIPF1 / RFU, LARP1B / Fold change vs veh, LARP1B / RFU, RASA1 / Fold change vs veh, RASA1 / RFU, RB1 / Fold change vs veh, RB1 / RFU, PPFIA1 / Fold change vs veh, PPFIA1 / RFU, MAT2A / Fold change vs veh, MAT2A / RFU, CCT5 / Fold change vs veh, CCT5 / RFU, WDR92 / Fold change vs veh, WDR92 / RFU, CUX1 / Fold change vs veh, CUX1 / RFU, TTC7A / Fold change vs veh, TTC7A / RFU, TMEM135 / Fold change vs veh, TMEM135 / RFU, DEPTOR / Fold change vs veh, DEPTOR / RFU, CPM / Fold change vs veh, CPM / RFU, DNAJB6 / Fold change vs veh, DNAJB6 / RFU, CACNA2D3 / Fold change vs veh, CACNA2D3 / RFU, DTX4 / Fold change vs veh, DTX4 / RFU, TFCP2 / Fold change vs veh, TFCP2 / RFU, GMCL1 /// GMCL1P1 / Fold change vs veh, GMCL1 /// GMCL1P1 / RFU, AEBP2 / Fold change vs veh, AEBP2 / RFU, SNHG1 /// SNORD22 /// SNORD25 /// SNORD26 /// SNORD27 /// SNORD28 /// SNORD29 /// SNORD31 / Fold change vs veh, SNHG1 /// SNORD22 /// SNORD25 /// SNORD26 /// SNORD27 /// SNORD28 /// SNORD29 /// SNORD31 / Fold change (Aza/veh), C12orf56 (ProbeSet 11735607_a_at) / Fold change (ACY-1035/veh), C12orf56 (ProbeSet 11735607_a_at) / Fold change (Aza/veh), FGFR1OP (ProbeSet 11751329_s_at) / Fold change (ACY-1035/veh), FGFR1OP (ProbeSet 11751329_s_at) / Fold change (Aza/veh), VPS36 (ProbeSet 11739960_a_at) / Fold change (ACY-1035/veh), VPS36 (ProbeSet 11739960_a_at) / RFU SYPL1 (11715823_x_at) / Fold change /veh SYPL1 (11715823_x_at) / RFU IGFBP7 (11715501_s_at) / Fold change /veh IGFBP7 (11715501_s_at) / RFU REEP3 (11722064_at) / Fold change /veh REEP3 (11722064_at) / RFU IGLL1 (11728026_x_at) / Fold change /veh IGLL1 (11728026_x_at): dose or concentration left out as unconfirmed
# Details: MV-4-11 cells, 48 hours
smiles,measurement,value
Nc1ccc(-c2cccs2)cc1NC(=O)c1ccc2c(c1)cc(C1CC1)n2CCN1CCOCC1 [ACY-1035],RFU FAM26E (11764081_at),5.59 RFU
